Read-outs that look alike come from different tables or passages of the source.
Tests used:
WS-1 cell lines = assay: Cytotoxicity assay on WS-1 (Example 1); details: Table 5; WS-1, 48 h
Experimental: Cytotoxicity assay. The cytotoxicity assay was performed in 96-well plates (BD Falcon). The WS-1 cell lines were provided by ATCC. The WS-1 was cultured in DMEM+10% fetal calf serum. The cells were plated in a volume of 100 μL at a density of 5000 cells per well and incubated at 37° C.+5% CO2 for 24 h to promote cell adhesion.
The plates were incubated at 37° C.+5% CO2 for 48 h. The cells were then washed with 100 μL of HBSS and 150 μL of a 2% resazurin were added to the wells.
The therapeutic index is the ratio between the toxicity on normal cells, in this case fibroblast, and the toxicity on bacteria.

S. epidermidis = assay: Antibiotic assay (resazurin, Example 1), S. epidermidis strains
Experimental: The antibiotic assays were performed in 96-well plates (BD Falcon). The bacteria strains were inoculated in Nutrient Broth (BD) for the gram negative bacteria and Tryptic soy broth (BD) with 10% of defibrinated sheep blood (PML microbiological) for gram positive strain. All bacteria strains were dosed by spectrophotometry at 660 nm where 1 D.O=2×10^8 bacteria/mL. All bacteria were plated in their respective broth at a concentration of 450 000 bacteria/mL.
Compounds I, II and III were diluted in methanol and the above-noted antibiotic agents were diluted in water. The solvent concentration was 0.25%, which was not toxic for the bacteria. Compounds I, II and III and the above-noted antibiotic agents were tested at 8 different concentrations.
Each well contained: 100 μL of bacteria, 50 μL of the compounds tested (compound I, II, III or the above-noted antibiotic agent) and 50 μL of a 4% resazurin (Sigma) solution. The plates were incubated at 37° C. for 5 h. The fluorescence was read using a Fluoroskan Ascent™ FL (thermo) using an excitation wavelength of 530 nm and an emission wavelength of 590 nm.
Two different strains of Staphylococcus were tested, namely the S. epidermidis and the S. aureus strains.

Enterococcus faecalis = assay: Antibiotic assay (resazurin, Example 1), Enterococcus faecalis; assay type: cell-based; details: for IC50: read-out: IC50
Experimental: (§1) Bacteria Strain. […] The MRSA were obtained as further described below.
(§2) Antibiotic agents. Cyprofloxacin and erythromycin were provided by Sigma-Aldrich. Gentamicin sulfate and vancomycin hydrochloride were provided by Calbiochem.
(§3) Five additional strains were tested: Streptococcus pneumoniae, Streptococcus agalactiae, Streptococcus pyogenes, Enterococcus faecalis and Corynebacterium jeikeium.

Streptococcus agalactiae = assay: Antibiotic assay (resazurin, Example 1), Streptococcus agalactiae; assay type: cell-based; details: for IC50: read-out: IC50
Experimental: as §1, §2, §3

S. aureus = assay: Antibiotic assay (resazurin, Example 1), S. aureus strains of Table 3; assay type: cell-based, Staphylococcus aureus; details: for IC50: read-out: IC50
Excerpt: as §1, §2

[1] = system: S. aureus wild type strain (ATCC 25923); assay: Antibiotic assay (resazurin, Example 1), S. aureus wild type; assay type: cell-based, Staphylococcus aureus
Experimental: as §1, §2
(§4) MRSA. Ten (10) strains of MRSA obtained as described above were tested along with an S. aureus wild type (WT) strain (ATCC25923).

[2] = system: methicillin-resistant Staphylococcus aureus (MRSA) strains; assay: Antibiotic assay (resazurin, Example 1), MRSA strains; assay type: cell-based; details: for IC50: read-out: IC50
Excerpt: as §1, §2
Isolation and identification of methicillin-resistant Staphylococcus aureus (MRSA) strains. From March 2007 to March 2008, 35 screening swabs from nares (n=31), throat (n=3), Groin pus (n=1) were obtained from patients hospitalized at Chicoutimi hospital. Identification of S. aureus was performed using the Slidex Staph-Kit (bioMerieux Vitek, Inc., Hazelwood, Mo.) according to the manufacturer's instructions. Quality control was performed with MRSA strain ATCC 43300 and S. aureus strain ATCC 25923. In addition, S. aureus profile was determined with API Staph test strip with bacterial suspension of saline McFarland of 0.5 (bioMerieux, Durham, N.C.) according to the manufacturer's protocol. API Staph strips were held for 24 h before the results were read. A latex agglutination (SLIDEX) test detecting methicilin resistance in Staphylococci based on the production of low-affinity PBP2a, which is encoded by the mecA gene was performed on all strains. An antibiogram was also performed to confirm the identification of MRSA strains using disk diffusion test.
Antibiotic susceptibility testing using disk diffusion method. The antimicrobial activity of different classes of antibiotics of the potential MRSA was determined by diffusion method (Kirby-Bauer) as described by NCCLS. The antibiotics tested included: penicillin (10 units), amoxicillin/clavulanic acid (20/10 μg), ciprofloxacin (5 μg), moxifloxacin (5 μg), levofloxacin (5 μg), clindamycin (15 μg), erythromycin (15 μg), cefoxitin (30 μg), linezolid (30 μg), trimethoprim/sulfomethoxazole (1.25/23.75 μg), rifampicin (5 μg), gentamicin (10 μg) and vancomycin (30 μg). The agar medium had pH 7.2 to 7.4 before inoculing potentiel MRSA. The antibiotics were maintained at 8° C. or lower −14° C. according to manufacturer's recommendations. The pure culture was inoculated on a non-selective plate for 18-24 h. Each colony was collected with a wire loop and transfered the growth to a tube containing 4 to 5 mL of a tryptic-soy broth. The inoculum density was standarized with BaSO4 using 0.5 McFarland standard. All strains were incubated at 37° C. until it achieves or exceeds the turbidity of 0.5 McFarland standard. Inoculation of the dried surface (Muller-Hinton agar plate) by streaking the swab over the entire sterile agar surface. This procedure was repeated two more times. After 15 min, the appropriate disk were applied on the surface with a sterile forceps. The inverted plates was placed in a incubator at 37° C./air/16 to 18 h or 24 h for vancomycin. The inhibition zones were measured with a millimetric ruler. Interpretation of zone sizes by references of the manufacturer. Quality control organisms used were ATCC strains number 25923.
as §4

Streptococcus pyogenes = assay: Antibiotic assay (resazurin, Example 1), Streptococcus pyogenes; assay type: cell-based; details: for IC50: read-out: IC50
Experimental: as §1, §2, §3

COc1ccc(CCC(=O)c2c(O)cc(O)c(C/C=C/c3ccc(O)cc3)c2O)cc1 [Compound II]
WS-1 (toxicity on normal cells, fibroblast) (WS-1 cell lines): 27 ± 4 | IC50 (S. epidermidis; S. epidermidis 14069): 5 ± 0.3 µM | Minimum Inhibitory Concentration (MIC) (S. epidermidis; S. epidermidis 14069): (12.7) μM | IC50 (S. epidermidis; S. epidermidis 14085): 4.4 ± 0.3 µM | Minimum Inhibitory Concentration (MIC) (S. epidermidis; S. epidermidis 14085): (14.3) μM | IC50 (S. epidermidis; S. epidermidis 14093): 7 ± 0.3 µM | Minimum Inhibitory Concentration (MIC) (S. epidermidis; S. epidermidis 14093): (11.2) μM | IC50 (S. epidermidis; S. epidermidis 14134): 3.8 ± 0.6 µM | Minimum Inhibitory Concentration (MIC) (S. epidermidis; S. epidermidis 14134): (13.5) μM | IC50 (S. epidermidis; S. epidermidis 14143): 5.8 ± 0.2 µM | Minimum Inhibitory Concentration (MIC) (S. epidermidis; S. epidermidis 14143): (10.9) μM | activity on S. epidermidis compared with ciprofloxacin (S. epidermidis; in words): more active than ciprofloxacin | Minimum Inhibitory Concentration (MIC) (Enterococcus faecalis; Ent. Faecalis 14078): (>200) μM | IC50 (Enterococcus faecalis; Ent. Faecalis 14078): > 200 µM | Minimum Inhibitory Concentration (MIC) (Enterococcus faecalis; Ent. Faecalis 14115): (>200) μM | IC50 (Enterococcus faecalis; Ent. Faecalis 14115): > 200 µM | activity against Enterococcus faecalis (Enterococcus faecalis; in words): No activity | Minimum Inhibitory Concentration (MIC) (Streptococcus agalactiae; Strep. agalactiae 14150): (>200) μM | IC50 (Streptococcus agalactiae; Strep. agalactiae 14150): 169 ± 3 µM | Minimum Inhibitory Concentration (MIC) (Streptococcus agalactiae; Strep. agalactiae 14151): (>200) μM | IC50 (Streptococcus agalactiae; Strep. agalactiae 14151): > 200 µM | Minimum Inhibitory Concentration (MIC) (Streptococcus agalactiae; Strep. agalactiae 14153): (>200) μM | IC50 (Streptococcus agalactiae; Strep. agalactiae 14153): > 200 µM | activity against Streptococcus agalactiae strain 14150 (Streptococcus agalactiae; in words): active | Minimum Inhibitory Concentration (MIC) (S. aureus; S. aureus 14094): (6.2) μM | IC50 (S. aureus; S. aureus 14094): 3.5 ± 0.3 µM | Minimum Inhibitory Concentration (MIC) (S. aureus; S. aureus 14108): (6.81) μM | IC50 (S. aureus; S. aureus 14108): 3.3 ± 0.2 µM | Minimum Inhibitory Concentration (MIC) (S. aureus; S. aureus 14118): (5.05) μM | Minimum Inhibitory Concentration (MIC) (S. aureus; S. aureus 14154): (4.88) μM | IC50 (S. aureus; S. aureus 14154): 2 ± 0.1 µM | Minimum Inhibitory Concentration (MIC) ([1]; S. aureus WT (ATCC 25923)): (6.47) μM | IC50 ([1]; S. aureus WT (ATCC 25923), read-out: IC50): 2.7 ± 0.7 µM | IC50 ([1]; Table 5, same values as IC50 of Table 2, read-out: S. aureus WT ATCC 25923 (toxicity on bacteria)): 2.7 ± 0.7 µM | Minimum Inhibitory Concentration (MIC) ([2]; MRSA 1): (5.34) μM | IC50 ([2]; MRSA 1): 2.5 ± 0.2 µM | Minimum Inhibitory Concentration (MIC) ([2]; MRSA 2): (5.57) μM | IC50 ([2]; MRSA 2): 2.6 ± 0.2 µM | Minimum Inhibitory Concentration (MIC) ([2]; MRSA 3): (5.29) μM | IC50 ([2]; MRSA 3): 2.6 ± 0.2 µM | Minimum Inhibitory Concentration (MIC) ([2]; MRSA 4): (4.61) μM | IC50 ([2]; MRSA 4): 2.4 ± 0.1 µM | Minimum Inhibitory Concentration (MIC) ([2]; MRSA 5): (4.86) μM | IC50 ([2]; MRSA 5): 2.3 ± 0.4 µM | Minimum Inhibitory Concentration (MIC) ([2]; MRSA 6): (5.22) μM | IC50 ([2]; MRSA 6): 2.3 ± 0.2 µM | Minimum Inhibitory Concentration (MIC) ([2]; MRSA 7): (4.34) μM | IC50 ([2]; MRSA 7): 2.5 ± 0.2 µM | Minimum Inhibitory Concentration (MIC) ([2]; MRSA 8): (4.84) μM | IC50 ([2]; MRSA 8): 2.3 ± 0.2 µM | Minimum Inhibitory Concentration (MIC) ([2]; MRSA 9): (5.26) μM | IC50 ([2]; MRSA 9): 2.5 ± 0.2 µM | Minimum Inhibitory Concentration (MIC) ([2]; MRSA 10): (5.07) μM | IC50 ([2]; MRSA 10): 3.2 ± 0.2 µM | Minimum Inhibitory Concentration (MIC) (Streptococcus pyogenes; Strep. pyogenes 14149): (>200) μM | IC50 (Streptococcus pyogenes; Strep. pyogenes 14149): > 200 µM | Minimum Inhibitory Concentration (MIC) (Streptococcus pyogenes; Strep. pyogenes 14152): (>200) μM | IC50 (Streptococcus pyogenes; Strep. pyogenes 14152): 90 ± 7 µM | activity against Streptococcus pyogenes strain 14152 (Streptococcus pyogenes; in words): active

Reference: US9499509B2, “Dihydrochalcone derivatives and their use as antibiotic agents” (UNIVERSITÉ DU QUÉBEC À CHICOUTIMI, priority 2012, dated 2016)
